One data set relates to phosphorylation of STAT6. As to the kind of experiment: Cellular p-STAT6 assay, IL-13 stimulated THP-1 cells, flow cytometry. It is filed as cell-based. The following applies: Homo sapiens, THP-1, THP-1 cells, IL-13 10 ng/ml; read-out: pSTAT6 IC50. The method in brief:
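THP-1 cells (2×10^5/well, RPMI1640 + 10% FBS) preincubated 60 min at room temperature with compound (1 μM to 0.3 nM), then stimulated 30 min with IL-13 at 10 ng/ml. Fixed, methanol-permeabilized cells stained with PE anti-pSTAT6 and read by flow cytometry; IC50 from dose-response curves.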
In general terms: Flow cytometry measures light scatter and fluorescence of single cells or particles in a stream.

Data set [1] can be described thus: Pharmacokinetics in plasma and lung in mouse, intratracheal instillation. Format: in vivo. The note with it: male CD1 mice. On the procedure:
Lung PK of the compounds were tested via Intratracheal (IT) instillation administration in male CD1 Mice. Plasma and lung levels of test compounds and ratios thereof were determined in the following manner. Test compounds were dosed cassettely as the formulation of 0.4 mg/mL suspension of 0.5% HPMC, 0.1% Tween 80 in saline. The animal was anesthetized using 5% of isoflurane for 5 min, open its mouth and take out the tongue, the light was focused on the neck of the mouse and localize the trachea, and the syringe was inserted into the trachea while the trachea is in the open state, and the test compounds were inject into the trachea. At various time points (typically 5 min, 1, 4, 24 hours) post dosing, approximately 0.250 mL blood samples were removed via cardiac puncture and intact lungs were excised from the mice. Each blood sample was transferred into plastic micro centrifuge tubes containing K2EDTA. Blood samples were then centrifuged (Eppendorf centrifuge, 5804R) for 4 minutes at approximately 12,000 rpm at 4° C. to collect plasma. The mice will be fully exsanguinated prior to tissue collection. Lung samples will be collected at adopted time point and the whole lung were weighted and homogenized. Concentrations of test compounds in the plasma and lung samples were analyzed using a LC-MS/MS method. WinNonlin (Phoenix™) or other similar software will be used for pharmacokinetic calculations.

For another data set, the target named is T1, JAK1 (Homo sapiens, UniProt P23458).
T1 construct: purchased Carna Biosciences
T1 sequence (P23458 whole entry): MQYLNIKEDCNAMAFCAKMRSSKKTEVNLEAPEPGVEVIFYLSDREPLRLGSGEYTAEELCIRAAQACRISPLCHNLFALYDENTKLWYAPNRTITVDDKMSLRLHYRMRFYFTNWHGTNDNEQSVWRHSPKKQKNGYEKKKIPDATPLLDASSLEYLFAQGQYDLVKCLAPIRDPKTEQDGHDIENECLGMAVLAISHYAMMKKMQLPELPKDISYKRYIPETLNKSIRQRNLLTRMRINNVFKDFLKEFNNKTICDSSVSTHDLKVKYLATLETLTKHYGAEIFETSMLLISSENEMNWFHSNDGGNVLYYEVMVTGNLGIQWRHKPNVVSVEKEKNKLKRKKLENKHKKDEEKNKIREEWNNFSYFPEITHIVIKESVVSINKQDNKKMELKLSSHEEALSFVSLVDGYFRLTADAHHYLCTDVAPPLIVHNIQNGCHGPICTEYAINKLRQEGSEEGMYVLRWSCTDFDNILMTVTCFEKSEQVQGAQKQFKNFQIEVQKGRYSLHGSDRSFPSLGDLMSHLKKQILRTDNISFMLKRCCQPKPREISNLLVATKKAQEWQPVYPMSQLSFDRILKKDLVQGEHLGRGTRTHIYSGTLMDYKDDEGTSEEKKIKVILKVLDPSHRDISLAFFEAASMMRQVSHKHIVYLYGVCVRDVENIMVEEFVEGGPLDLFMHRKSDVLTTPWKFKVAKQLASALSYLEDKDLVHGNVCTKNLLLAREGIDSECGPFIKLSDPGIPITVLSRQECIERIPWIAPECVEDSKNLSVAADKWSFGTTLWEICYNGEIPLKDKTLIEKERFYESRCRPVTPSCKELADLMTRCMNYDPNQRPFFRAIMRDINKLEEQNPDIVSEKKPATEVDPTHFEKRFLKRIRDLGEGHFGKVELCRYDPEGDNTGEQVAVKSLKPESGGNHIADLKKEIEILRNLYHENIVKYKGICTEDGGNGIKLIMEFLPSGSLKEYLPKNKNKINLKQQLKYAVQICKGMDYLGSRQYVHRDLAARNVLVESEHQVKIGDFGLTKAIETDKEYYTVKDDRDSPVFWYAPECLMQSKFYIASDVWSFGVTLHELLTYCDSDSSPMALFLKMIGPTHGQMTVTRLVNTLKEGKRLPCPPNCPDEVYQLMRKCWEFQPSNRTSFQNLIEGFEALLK
Put plainly: Lance Ultra Kinase Assay, recombinant JAK1. It is filed as biochemical. The note with it: 5 mM ATP. The method in brief: (§1)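 Each recombinant kinase preincubated with or without compound 15 min at room temperature, then reaction started with 5 mM ATP and substrate peptide for 60 min. Stopped with EDTA-containing detection mix; TR-FRET read at ex 320 nm, 665/615 nm emission ratio taken as kinase activity.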

For the next data set, the target named is T2, JAK3 (Homo sapiens, UniProt P52333).
T2 construct: purchased Carna Biosciences
T2 sequence (P52333 1-1124): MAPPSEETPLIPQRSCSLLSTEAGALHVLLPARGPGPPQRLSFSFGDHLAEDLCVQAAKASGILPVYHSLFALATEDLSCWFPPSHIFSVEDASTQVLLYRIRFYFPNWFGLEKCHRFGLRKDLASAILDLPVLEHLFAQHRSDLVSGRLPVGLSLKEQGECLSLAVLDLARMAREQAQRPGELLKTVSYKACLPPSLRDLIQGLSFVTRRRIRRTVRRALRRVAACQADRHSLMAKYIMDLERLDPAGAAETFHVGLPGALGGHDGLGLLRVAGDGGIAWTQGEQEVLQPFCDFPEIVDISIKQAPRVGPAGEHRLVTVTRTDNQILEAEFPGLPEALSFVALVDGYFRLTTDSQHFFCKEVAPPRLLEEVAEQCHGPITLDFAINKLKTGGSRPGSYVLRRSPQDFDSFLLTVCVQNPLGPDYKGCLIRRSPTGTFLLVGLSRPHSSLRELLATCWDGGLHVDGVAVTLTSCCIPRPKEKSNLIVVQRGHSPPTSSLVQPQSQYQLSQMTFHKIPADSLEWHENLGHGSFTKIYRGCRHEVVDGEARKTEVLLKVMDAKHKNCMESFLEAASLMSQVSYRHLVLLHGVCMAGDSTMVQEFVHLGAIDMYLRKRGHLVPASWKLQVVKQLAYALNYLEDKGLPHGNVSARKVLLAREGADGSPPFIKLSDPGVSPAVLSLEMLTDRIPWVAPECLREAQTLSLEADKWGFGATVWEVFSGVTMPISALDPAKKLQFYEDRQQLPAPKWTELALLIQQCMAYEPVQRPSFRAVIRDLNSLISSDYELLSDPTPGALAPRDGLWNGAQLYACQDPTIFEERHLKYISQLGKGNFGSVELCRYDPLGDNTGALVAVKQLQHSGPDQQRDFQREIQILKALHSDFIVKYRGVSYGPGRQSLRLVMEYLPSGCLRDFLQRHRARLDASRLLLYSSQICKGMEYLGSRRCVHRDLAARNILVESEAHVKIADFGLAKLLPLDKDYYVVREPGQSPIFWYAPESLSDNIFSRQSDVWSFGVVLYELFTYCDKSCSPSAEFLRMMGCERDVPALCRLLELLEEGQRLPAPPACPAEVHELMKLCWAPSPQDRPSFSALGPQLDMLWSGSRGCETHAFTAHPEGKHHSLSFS
As to the kind of experiment: Lance Ultra Kinase Assay, recombinant JAK3. It is filed as biochemical. The following applies: 5 mM ATP. The gist of the method: as §1

Data set [2] can be described thus: Metabolic stability in human liver microsome. Format: in vitro ADME. The following applies: human, pooled human liver microsomes, pH 7.4, 1 μM compound, 1 mg/mL microsomes, NADPH. The procedure: (§2) Rat hepatocytes in male gender and human liver microsome were obtained from commercial vendors (e.g., BioreclamationIVT) and stored at −150° C. prior to use.
For metabolic stability assay with human liver microsome, 1 μM of each test compound was incubated with 1 mg/mL of microsomes (Pooled HLM with 20 mg/ml protein cone) at 37° C. in 250 μL of buffer (100 mM phosphate buffer, pH-7.4) containing 1 mM NADPH solution. […] was quenched with 5 volumes chilled acetonitrile at different time points 0, 0.5, 5, 10, 15, 20 and 30 min in a fresh 96 well plate. The quench plate was centrifuged at 4000 rpm for 15 min. 40 μL of supernatant was diluted to 200 μL with pure water and analyzed using LC-MS/MS. […]
(In general: Microsomes from liver hold many membrane-bound enzymes, among them those of drug oxidation.)

For another data set, the target named is T3, JAK2 (Homo sapiens, UniProt O60674).
T3 construct: purchased Carna Biosciences
T3 sequence (O60674 whole entry): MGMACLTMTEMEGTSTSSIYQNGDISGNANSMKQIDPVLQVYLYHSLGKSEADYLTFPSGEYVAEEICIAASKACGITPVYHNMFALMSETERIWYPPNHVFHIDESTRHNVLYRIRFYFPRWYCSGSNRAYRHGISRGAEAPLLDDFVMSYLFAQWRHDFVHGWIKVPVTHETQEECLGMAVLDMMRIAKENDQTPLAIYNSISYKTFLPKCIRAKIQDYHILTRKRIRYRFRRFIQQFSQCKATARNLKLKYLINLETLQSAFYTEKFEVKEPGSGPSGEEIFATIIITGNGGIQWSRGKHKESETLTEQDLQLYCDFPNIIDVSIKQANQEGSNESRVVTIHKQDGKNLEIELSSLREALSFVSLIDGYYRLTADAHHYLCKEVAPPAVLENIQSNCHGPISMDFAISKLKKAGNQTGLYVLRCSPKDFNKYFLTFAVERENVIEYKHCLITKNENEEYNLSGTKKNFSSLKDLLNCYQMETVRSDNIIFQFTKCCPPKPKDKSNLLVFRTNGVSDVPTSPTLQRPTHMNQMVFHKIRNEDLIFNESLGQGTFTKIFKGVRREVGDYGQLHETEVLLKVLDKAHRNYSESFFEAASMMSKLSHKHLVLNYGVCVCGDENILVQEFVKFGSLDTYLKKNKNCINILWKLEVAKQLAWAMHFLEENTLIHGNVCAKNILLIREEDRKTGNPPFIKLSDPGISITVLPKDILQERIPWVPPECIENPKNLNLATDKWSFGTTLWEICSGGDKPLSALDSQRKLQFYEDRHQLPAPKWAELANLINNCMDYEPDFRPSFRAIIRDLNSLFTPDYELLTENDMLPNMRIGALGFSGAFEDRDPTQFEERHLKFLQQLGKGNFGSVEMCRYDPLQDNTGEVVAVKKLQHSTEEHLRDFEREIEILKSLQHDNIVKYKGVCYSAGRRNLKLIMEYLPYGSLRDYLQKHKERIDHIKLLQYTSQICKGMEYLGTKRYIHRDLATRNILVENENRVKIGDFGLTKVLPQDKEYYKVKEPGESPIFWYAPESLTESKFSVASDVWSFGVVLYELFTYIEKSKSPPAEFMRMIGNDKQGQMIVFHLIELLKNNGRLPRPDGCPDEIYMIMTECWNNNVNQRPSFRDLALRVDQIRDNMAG
Put plainly: Lance Ultra Kinase Assay, recombinant JAK2. Format: biochemical. The following applies: 5 mM ATP. The method in brief: as §1

Data set [3] in a line: Metabolic stability in rat hepatocytes. The note with it: 1 μM compound, male rat hepatocytes. Format: in vitro ADME. On the procedure:
as §2
For metabolic stability assay with rat heptatocytes, vials of cryopreserved hepatocytes or microsome were removed from storage, ensured that vials remain at cryogenic temperatures. 1 μM of each test compound (in Acetonitrile; 0.01% DMSO) was incubated with 250 μL of hepatocyte cells (1×10^6 cells/ml) in a 96 deep well plate. […] 40 μL of supernatant was diluted to 200 μL with pure water and analyzed using LC-MS/MS.
In vitro hepatocyte clearance was estimated based on determination of elimination half-life (T1/2) of compounds disappearance from their initial concentrations. Peak area ratios of each compound (test or control) to IS was calculated. Ln (% Control) versus Incubation Time (min) curve was plotted, and the slope of a linear fitting line was calculated. Drug elimination rate constant k (min−1), T1/2 (min), and in vitro intrinsic clearance CLint (μL/min/E6) was calculated according to the following equations: k=−slope T1/2=0.693/k CLint=k/Chep Where Chep (cells×μL^−1) is the cell concentration in the incubation system.

For the next data set, the target named is T4, TYK2 (Homo sapiens, UniProt P29597).
T4 construct: purchased Carna Biosciences
T4 sequence (P29597 whole entry): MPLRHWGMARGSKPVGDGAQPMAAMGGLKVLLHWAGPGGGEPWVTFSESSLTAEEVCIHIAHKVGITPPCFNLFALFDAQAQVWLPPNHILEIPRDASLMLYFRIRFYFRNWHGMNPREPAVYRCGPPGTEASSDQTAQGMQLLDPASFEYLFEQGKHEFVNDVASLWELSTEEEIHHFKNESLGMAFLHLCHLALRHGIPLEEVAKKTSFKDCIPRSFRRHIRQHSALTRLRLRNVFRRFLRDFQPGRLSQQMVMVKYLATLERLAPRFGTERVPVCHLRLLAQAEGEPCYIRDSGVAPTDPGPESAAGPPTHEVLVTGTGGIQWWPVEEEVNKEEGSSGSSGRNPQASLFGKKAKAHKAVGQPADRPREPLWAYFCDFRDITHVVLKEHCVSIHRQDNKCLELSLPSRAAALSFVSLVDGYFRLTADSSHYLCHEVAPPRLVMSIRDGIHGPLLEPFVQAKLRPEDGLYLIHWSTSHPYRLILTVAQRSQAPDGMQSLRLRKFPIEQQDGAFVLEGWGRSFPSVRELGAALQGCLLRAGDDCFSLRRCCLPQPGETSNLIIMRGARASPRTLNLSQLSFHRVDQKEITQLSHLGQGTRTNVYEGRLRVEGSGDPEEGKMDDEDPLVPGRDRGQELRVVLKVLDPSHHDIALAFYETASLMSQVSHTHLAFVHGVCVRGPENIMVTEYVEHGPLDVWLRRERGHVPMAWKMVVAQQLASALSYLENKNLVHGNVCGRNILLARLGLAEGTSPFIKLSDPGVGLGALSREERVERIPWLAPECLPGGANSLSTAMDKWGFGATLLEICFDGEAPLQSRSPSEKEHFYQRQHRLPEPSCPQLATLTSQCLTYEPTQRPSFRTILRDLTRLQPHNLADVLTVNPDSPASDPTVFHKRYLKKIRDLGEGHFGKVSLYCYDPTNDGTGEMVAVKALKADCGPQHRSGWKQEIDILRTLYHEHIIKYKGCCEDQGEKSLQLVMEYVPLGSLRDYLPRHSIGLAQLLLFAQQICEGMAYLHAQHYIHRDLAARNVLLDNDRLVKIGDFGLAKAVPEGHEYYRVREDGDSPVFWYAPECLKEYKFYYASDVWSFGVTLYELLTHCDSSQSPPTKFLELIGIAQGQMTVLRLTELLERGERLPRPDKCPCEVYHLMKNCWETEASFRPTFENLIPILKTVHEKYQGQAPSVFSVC
Put plainly: Lance Ultra Kinase Assay, recombinant TYK2. Format: biochemical. The following applies: 5 mM ATP. The method in brief:
as §1

Where only a bound is given, the exact number is not on record here.

As to `COC[C@H](C(=O)Nc1cccc2c(-c3nc(Nc4ccc(-c5cnco5)nc4)ncc3F)c[nH]c12)N1CCN(C)CC1` [Example 40, (R)-N-(3-(5-fluoro-2-((6-(oxazol-5-yl)pyridin-3-yl)amino)pyrimidin-4-yl)-1H-indol-7-yl)-3-methoxy-2-(4-methylpiperazin-1-yl)propanamide], the IC50 (commonly the concentration needed to halve the response being measured) is 12.1 nM in the data set on phosphorylation of STAT6; 0.21 nM at JAK1; > 10000 nM at JAK3; 219 nM on JAK2; 2510 nM at TYK2. The “% Dose in Lung 5 min” value in data set [1] (5 min) came to 58.6%. In data set [1] (1 hr), the “% Dose in Lung 1 hr” value is given as 23.0%. Also, the half-life in data set [1] (mouse, lung, intratracheal instillation, read-out: Lung T1/2 (converted)) is 4.6 h. In data set [1] (mouse, lung/plasma, other: intratracheal instillation, 5 min, read-out: Conc. Ratio (Lung/Plasma) 5 min), the Kp at 5 min is 824. Besides, the Kp at 1 h in data set [1] (mouse, lung/plasma, other: intratracheal instillation, 1 hr, read-out: Conc. Ratio (Lung/Plasma) 1 hr) was found to be 1440. Further, in data set [2], the intrinsic metabolic clearance (microsomal CLint) (commonly the rate of metabolic loss divided by the concentration) at 1 μM is 50.4 µL/min/mg. Besides, the “Rat Hepatocyte CLint” value in data set [3] is reported as 36.4 μL/min/10^6 cells.
Take `COC[C@H](C(=O)Nc1cccc2c(-c3nc(Nc4cnn(-c5cccc(CO)c5)c4)ncc3F)c[nH]c12)N1CCN(C)CC1` [Example 67, (R)-N-(3-(5-fluoro-2-((1-(3-(hydroxymethyl)phenyl)-1H-pyrazol-4-yl)amino)pyrimidin-4-yl)-1H-indol-7-yl)-3-methoxy-2-(4-methylpiperazin-1-yl)propanamide]: the IC50 in the data set with phosphorylation of STAT6 was determined as 20.6 nM; at JAK1, 0.18 nM; at JAK3 it was 6770 nM; at JAK2, 35 nM; on TYK2, 609 nM. For the same compound, the microsomal CLint at 1 μM in data set [2] is 19.5 µL/min/mg. In data set [3], the “Rat Hepatocyte CLint” value is recorded as 153.6 μL/min/10^6 cells.
On to `COC[C@H](C(=O)Nc1cccc2c(-c3nc(Nc4cnn(C5CCOC5)c4)ncc3F)c[nH]c12)N1CCN(C)CC1` (single isomer, unassigned; isomer 1) [Example 30], for which the 50% inhibitory concentration (IC50) was 10.3 nM in the data set on phosphorylation of STAT6; 0.15 nM on JAK1; > 10000 nM at JAK3; 95 nM on JAK2; 1180 nM on TYK2. The same compound came in with a microsomal CLint at 1 μM in data set [2] of 13.5 µL/min/mg. Moreover, the “Rat Hepatocyte CLint” value in data set [3] is on record as 4.4 μL/min/10^6 cells.
On to `COC[C@H](C(=O)Nc1cccc2c(-c3nc(Nc4ccc5c(c4)C(=O)NCC5)ncc3F)c[nH]c12)N1CCN(C)CC1` [Example 35, (R)-N-(3-(5-fluoro-2-((1-oxo-1,2,3,4-tetrahydroisoquinolin-7-yl)amino)pyrimidin-4-yl)-1H-indol-7-yl)-3-methoxy-2-(4-methylpiperazin-1-yl)propanamide], for which the IC50 in the data set on phosphorylation of STAT6 was 11.3 nM; on JAK1, 0.26 nM; at JAK3, > 10000 nM; on JAK2, 199 nM; on TYK2 it was 2040 nM. The microsomal CLint at 1 μM in data set [2] came out at 9.2 µL/min/mg. Moreover, in data set [3], the “Rat Hepatocyte CLint” value worked out at 2.2 μL/min/10^6 cells.
Take `COC[C@H](C(=O)Nc1cccc2c(-c3nc(Nc4ccc(CCO)nc4)ncc3F)c[nH]c12)N1CCN(C)CC1` [Example 60, (R)-N-(3-(5-fluoro-2-((6-(2-hydroxyethyl)pyridin-3-yl)amino)pyrimidin-4-yl)-1H-indol-7-yl)-3-methoxy-2-(4-methylpiperazin-1-yl)propanamide]: the 50% inhibitory concentration (IC50) with phosphorylation of STAT6 is 17.6 nM; on JAK1, 0.25 nM; at JAK3 it was > 10000 nM; on JAK2, 158 nM; at TYK2, 1340 nM. Moreover, in data set [2], the intrinsic clearance (microsomal CLint) at 1 μM was found to be 7 µL/min/mg. Besides, the “Rat Hepatocyte CLint” value in data set [3] came to 4.6 μL/min/10^6 cells.
For the compound `COC[C@H](C(=O)Nc1cccc2c(-c3nc(Nc4ccc(C(=O)OC)nc4)ncc3F)c[nH]c12)N1CCN(C)CC1` [Example 12, methyl (R)-5-((5-fluoro-4-(7-(3-methoxy-2-(4-methylpiperazin-1-yl)propanamido)-1H-indol-3-yl)pyrimidin-2-yl)amino)picolinate], the IC50 in the data set on phosphorylation of STAT6 is 7.2 nM; at JAK1 it was 0.17 nM; on JAK3 it was > 10000 nM; at JAK2, 469 nM; at TYK2, 3770 nM. In addition, the intrinsic clearance (microsomal CLint) at 1 μM in data set [2] was > 300 µL/min/mg. Besides, the “Rat Hepatocyte CLint” value in data set [3] is recorded as 226.4 μL/min/10^6 cells.
As for `COC[C@H](C(=O)Nc1cccc2c(-c3nc(Nc4ccc(CO)nc4)ncc3F)c[nH]c12)N1CCN(C)CC1` [Example 1, (R)-N-(3-(5-fluoro-2-((6-(hydroxymethyl)pyridin-3-yl)amino)pyrimidin-4-yl)-1H-indol-7-yl)-3-methoxy-2-(4-methylpiperazin-1-yl)propanamide], the IC50 was 4 nM with phosphorylation of STAT6; 0.13 nM on JAK1; > 10000 nM at JAK3; 85 nM at JAK2; 644 nM on TYK2. In data set [2], this compound registered an intrinsic clearance (microsomal CLint) at 1 μM of 4.9 µL/min/mg. Further, in data set [3], the “Rat Hepatocyte CLint” value is listed as 68.8 μL/min/10^6 cells.
Consider `COC[C@H](C(=O)Nc1cccc2c(-c3nc(Nc4ccc(NC(C)=O)nc4)ncc3F)c[nH]c12)N1CCN(C)CC1` [Example 48, (R)-N-(3-(2-((6-acetamidopyridin-3-yl)amino)-5-fluoropyrimidin-4-yl)-1H-indol-7-yl)-3-methoxy-2-(4-methylpiperazin-1-yl)propanamide], for which the IC50 in the data set on phosphorylation of STAT6 was 14 nM; on JAK1, 0.27 nM; on JAK3, > 10000 nM; at JAK2 it was 379 nM; on TYK2, 1700 nM. This compound also registered an intrinsic clearance (microsomal CLint) at 1 μM in data set [2] of 69.1 µL/min/mg. Moreover, the “Rat Hepatocyte CLint” value in data set [3] is 1.6 μL/min/10^6 cells.
